In the supplement of paper PMC10331698:
± gives the standard deviation of the averaged measurements.

Tests used:
Test in all cases: level (log10 ratio to DMSO vehicle control); higher = higher biomarker level / cell amount than vehicle control
Details in all cases: in DMSO
[1] = compound: CCN(CCO)S(=O)(=O)C(F)(F)C(F)(F)C(F)(F)C(F)(F)C(F)(F)C(F)(F)C(F)(F)C(F)(F)F [N-Ethyl-N-(2-hydroxyethyl)perfluorooctanesulfonamide]
Method: (§1)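 BioMAP Diversity Plus panel of 12 human primary cell co-culture systems (3C, 4H, LPS, SAg, BT, BF4T, BE3C, CASM3C, HDF3CGF, KF3CT, MyoF, Mphg). Compounds were added 1 h before stimulation and left for 24 h (MyoF 48 h; BT 72 h for soluble read-outs or 6 d for IgG). Biomarkers were read by ELISA, cytotoxicity by SRB, PBMC viability and proliferation by Alamar Blue. Each well value was divided by the mean of 8 DMSO control wells on the same plate and log10 transformed; duplicate blinded samples were tested at 4 concentrations.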

Perfluoro-1-iodohexane = compound: FC(F)(F)C(F)(F)C(F)(F)C(F)(F)C(F)(F)C(F)(F)I [Perfluoro-1-iodohexane]
Method: as §1

[2] = compound: FC(F)(F)C(F)(F)C(F)(F)C(F)(F)C(F)(F)CCI [1-Iodo-1H,1H,2H,2H-perfluoroheptane]
Method: as §1

Heptafluorobutyramide = compound: NC(=O)C(F)(F)C(F)(F)C(F)(F)F [Heptafluorobutyramide]
Method: as §1

[3] = compound: O=C(O)C(F)(F)C(F)(F)C(F)(F)OC(F)(C(F)(F)F)C(F)(F)F [Perfluoro-4-isopropoxybutanoic acid]
Method: as §1

Perfluoropropanoic acid = compound: O=C(O)C(F)(F)C(F)(F)F [Perfluoropropanoic acid]
Method: as §1

[4] = compound: O=C(O)C(F)(F)OC(F)(F)C(F)(F)OC(F)(F)F [Perfluoro-3,6-dioxaheptanoic acid]
Method: as §1

| Test System | level (log10) ([1]; 6700 nM) | level (log10) ([1]; 20000 nM) | level (log10) (Perfluoro-1-iodohexane; 6700 nM) | level (log10) (Perfluoro-1-iodohexane; 20000 nM) | level (log10) (Perfluoro-1-iodohexane; 60000 nM) | level (log10) ([2]; 6700 nM) | level (log10) ([2]; 20000 nM) | level (log10) ([2]; 60000 nM) | level (log10) (Heptafluorobutyramide; 6700 nM) | level (log10) (Heptafluorobutyramide; 20000 nM) | level (log10) (Heptafluorobutyramide; 60000 nM) | level (log10) ([3]; 6700 nM) | level (log10) ([3]; 20000 nM) | level (log10) ([3]; 60000 nM) | level (log10) (Perfluoropropanoic acid; 6700 nM) | level (log10) (Perfluoropropanoic acid; 20000 nM) | level (log10) (Perfluoropropanoic acid; 60000 nM) | level (log10) ([4]; 6700 nM) | level (log10) ([4]; 20000 nM) | level (log10) ([4]; 60000 nM) |
| --- | --- | --- | --- | --- | --- | --- | --- | --- | --- | --- | --- | --- | --- | --- | --- | --- | --- | --- | --- | --- |
| HDF3CGF:Proliferation 72hr | -0.391 ± 0.079 | -0.746 ± 0.094 | -0.0315 ± 0.019 | -0.028 ± 0.0014 | -0.468 ± 0.57 | -0.058 ± 0.0099 | -0.257 ± 0.04 | -0.832 ± 0.16 | 0.0015 ± 0.088 | 0.016 ± 0.041 | -0.0205 ± 0.053 | 0.0305 ± 0.037 | 0.04 ± 0.055 | 0.051 ± 0.011 | 0.006 ± 0.0042 | -0.01 ± 0.045 | 0.0325 ± 0.0078 | 0.0205 ± 0.05 | 0.055 ± 0.034 | 0.06 ± 0.0014 |
| HDF3CGF:MMP-1 | 0.043 ± 0.013 | 0.0065 ± 0.026 | 0.0065 ± 0.0035 | -0.0075 ± 0.029 | -0.034 ± 0.017 | 0.0565 ± 0.013 | 0.078 ± 0.0085 | 0.089 ± 0.037 | 0.004 ± 0.011 | -0.01 | 0.001 ± 0.0057 | -0.0055 ± 0.0035 | 0 ± 0.0028 | -0.0015 ± 0.011 | -0.0065 ± 0.0064 | 0.0045 ± 0.013 | 0.0035 ± 0.015 | -0.009 ± 0.0099 | 0.0085 ± 0.013 | -0.014 ± 0.03 |
| MyoF:PAI-I | -0.0065 ± 0.0064 | -0.0085 ± 0.018 | -0.001 ± 0.0028 | -0.025 ± 0.0057 | -0.12 ± 0.054 | -0.0005 ± 0.00071 | 0.0005 ± 0.00071 | -0.002 ± 0.0042 | 0.0035 ± 0.00071 | 0.01 ± 0.0014 | -0.0055 ± 0.016 | -0.0035 ± 0.015 | -0.007 ± 0.0042 | 0.006 ± 0.018 | -0.0035 ± 0.013 | -0.0165 ± 0.0035 | -0.0035 ± 0.012 | -0.019 ± 0.038 | -0.0245 ± 0.03 | -0.0275 ± 0.025 |
| 3C:CCL2/MCP-1 | -0.032 ± 0.016 | -0.145 ± 0.032 | -0.0105 ± 0.0021 | -0.006 ± 0.02 | 0.003 ± 0.047 | -0.0135 ± 0.0021 | -0.009 ± 0.0099 | 0.0045 ± 0.025 | -0.011 ± 0.0057 | -0.0125 ± 0.0064 | 0.0065 ± 0.03 | -0.005 ± 0.016 | 0.001 ± 0.0071 | 0.0375 ± 0.018 | -0.041 ± 0.048 | -0.0145 ± 0.049 | 0.0435 ± 0.073 | -0.023 ± 0.044 | -0.015 ± 0.013 | -0.023 ± 0.021 |
| BE3C:PAI-I | -0.066 ± 0.0071 | -0.092 ± 0.017 | -0.0245 ± 0.04 | -0.0045 ± 0.025 | 0.006 ± 0.037 | -0.025 ± 0.061 | -0.0105 ± 0.056 | 0.008 ± 0.1 | -0.0065 ± 0.00071 | -0.0025 ± 0.00071 | -0.0115 ± 0.015 | -0.0155 ± 0.028 | 0.002 ± 0.017 | 0.0115 ± 0.032 | -0.029 ± 0.045 | -0.0065 ± 0.057 | 0.017 ± 0.052 | -0.037 ± 0.055 | 0.0125 ± 0.053 | 0.0055 ± 0.018 |
| CASM3C:IL-6 | -0.0025 ± 0.0035 | -0.0255 ± 0.044 | -0.0035 ± 0.012 | -0.0055 ± 0.0021 | 0.018 ± 0.0099 | -0.0145 ± 0.022 | -0.044 ± 0.0057 | -0.017 ± 0.018 | -0.0275 ± 0.033 | -0.0105 ± 0.012 | 0.013 ± 0.042 | -0.0055 ± 0.019 | -0.002 ± 0.025 | 0.0285 ± 0.084 | -0.0205 ± 0.056 | -0.025 ± 0.0071 | -0.0045 ± 0.035 | -0.01 ± 0.044 | -0.0255 ± 0.0035 | -0.017 ± 0.02 |
| KF3CT:PAI-I | -0.0995 ± 0.011 | -0.193 ± 0.014 | 0.001 ± 0.0014 | -0.0005 ± 0.005 | 0.0055 ± 0.005 | -0.007 ± 0.02 | -0.014 ± 0.0071 | -0.0245 ± 0.028 | -0.0145 ± 0.0035 | -0.011 ± 0.0028 | 0.0105 ± 0.012 | -0.019 ± 0.0028 | -0.0265 ± 0.015 | -0.0125 ± 0.018 | 0.0095 ± 0.07 | 0.021 ± 0.0071 | -0.006 ± 0.1 | 0.0035 ± 0.096 | 0.009 ± 0.0085 | 0.008 ± 0.072 |
| lMphg:IL-1alpha | -0.018 ± 0.054 | -0.0235 ± 0.018 | 0.008 ± 0.0057 | 0.0525 ± 0.019 | 0.027 ± 0.011 | 0.031 ± 0.021 | -0.01 ± 0.018 | 0.0305 ± 0.016 | -0.034 ± 0.021 | -0.0015 ± 0.018 | 0.0475 ± 0.053 | -0.005 ± 0.0057 | 0.0045 ± 0.005 | 0.009 ± 0.028 | -0.0235 ± 0.00071 | -0.019 ± 0.038 | 0.035 ± 0.027 | -0.0025 ± 0.046 | 0.007 ± 0.035 | -0.005 ± 0.027 |
| HDF3CGF:EGFR | -0.102 ± 0.024 | -0.115 ± 0.0021 | 0.016 ± 0.05 | 0.0115 ± 0.043 | -0.035 ± 0.14 | 0.046 ± 0.02 | 0.059 ± 0.021 | 0.038 ± 0.031 | 0.0095 ± 0.059 | 0.0005 ± 0.046 | -0.0155 ± 0.032 | -0.001 ± 0.034 | -0.0035 ± 0.022 | -0.012 ± 0.024 | -0.0215 ± 0.035 | -0.0145 ± 0.022 | 0.0055 ± 0.019 | 0.033 ± 0.0071 | 0.031 ± 0.047 | 0.048 ± 0.054 |
| MyoF:Decorin | -0.0095 ± 0.016 | -0.085 ± 0.028 | 0.0185 ± 0.011 | 0.023 ± 0.0042 | -0.012 ± 0.044 | -0.012 ± 0.0028 | -0.022 ± 0.023 | -0.007 ± 0.034 | -0.029 ± 0.057 | 0.02 ± 0.081 | 0.0065 ± 0.049 | 0.008 ± 0.0057 | 0.023 ± 0.027 | 0.065 ± 0.061 | -0.0255 ± 0.073 | 0.002 ± 0.11 | 0.046 ± 0.089 | -0.0075 ± 0.03 | -0.013 ± 0.017 | 0.012 ± 0.04 |
| KF3CT:SRB | -0.015 | -0.0305 ± 0.0092 | -0.0075 ± 0.00071 | -0.0065 ± 0.00071 | 0 ± 0.011 | 0.002 ± 0.0071 | -0.0045 ± 0.00071 | -0.0065 ± 0.0078 | -0.0055 ± 0.0035 | 0.0025 ± 0.0078 | -0.001 ± 0.011 | -0.009 ± 0.0071 | -0.013 ± 0.0028 | -0.007 ± 0.0071 | 0.005 ± 0.0071 | -0.005 ± 0.0028 | -0.003 | 0.0035 ± 0.0021 | -0.0015 ± 0.0021 | -0.0045 ± 0.005 |
| MyoF:alpha-SM Actin | 0.0845 ± 0.023 | -0.235 ± 0.057 | -0.073 ± 0.021 | -0.173 ± 0.086 | -0.38 ± 0.0092 | -0.0265 ± 0.029 | -0.003 ± 0.018 | -0.009 ± 0.0071 | 0.0105 ± 0.033 | -0.004 ± 0.033 | 0.0015 ± 0.018 | 0.0045 ± 0.023 | 0.008 ± 0.033 | 0.026 ± 0.052 | -0.031 ± 0.035 | -0.013 ± 0.017 | 0.011 ± 0.0057 | -0.013 ± 0.0071 | -0.027 ± 0.034 | -0.0095 ± 0.018 |
| KF3CT:CXCL10/IP-10 | -0.0395 ± 0.022 | -0.107 ± 0.015 | 0.005 ± 0.0014 | 0.001 ± 0.0028 | 0.0065 ± 0.0092 | 0.0035 ± 0.00071 | 0.001 ± 0.013 | -0.0185 ± 0.00071 | 0.002 ± 0.0042 | 0.0015 ± 0.0078 | 0.005 ± 0.0099 | 0.019 ± 0.034 | 0.017 ± 0.023 | 0.0235 ± 0.043 | -0.022 ± 0.033 | 0.004 ± 0.014 | 0.019 ± 0.0085 | -0.0085 ± 0.00071 | -0.0055 ± 0.005 | 0.003 ± 0.013 |
| 3C:CD106/VCAM-1 | 0.0005 ± 0.005 | 0.005 ± 0.0085 | 0.003 ± 0.024 | 0.0075 ± 0.018 | 0 ± 0.047 | -0.01 ± 0.0028 | -0.02 ± 0.0042 | -0.0205 ± 0.022 | -0.0085 ± 0.0021 | -0.01 ± 0.014 | -0.025 | 0.0135 ± 0.00071 | 0.006 ± 0.011 | 0.015 ± 0.02 | -0.025 ± 0.0014 | -0.0145 ± 0.005 | 0.004 ± 0.0014 | -0.0185 ± 0.019 | -0.008 ± 0.0071 | -0.001 ± 0.018 |
